# In patent US7612104B2, “Bicyclic aryl-sulfonic acid [1,3,4]-thiadiazol-2-yl-amides, processes for their preparation, pharmaceutical compositions and methods for their use” (Sanofi-Aventis, priority 2005, dated 2009):
# Target: T1, human PPARdelta (Homo sapiens, UniProt Q03181)
# T1 construct: amino acids S139-Y441; expressed in transfected cells; host or cells: HEK cells, stably transfected (pcDNA3, CMV promoter)
# T1 sequence (Q03181 139-441): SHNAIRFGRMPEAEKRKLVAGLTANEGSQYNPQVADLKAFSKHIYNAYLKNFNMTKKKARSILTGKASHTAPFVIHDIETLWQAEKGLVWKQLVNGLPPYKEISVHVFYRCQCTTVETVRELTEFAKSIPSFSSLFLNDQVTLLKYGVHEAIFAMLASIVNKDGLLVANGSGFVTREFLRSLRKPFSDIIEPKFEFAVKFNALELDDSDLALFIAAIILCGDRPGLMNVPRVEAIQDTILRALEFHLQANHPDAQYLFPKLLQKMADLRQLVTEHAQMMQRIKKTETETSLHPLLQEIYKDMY
# Assay: Cellular PPARdelta assay (stably transfected HEK reporter cell line, luciferase)
# Assay type: cell-based
# Details: GR-GAL4-humanPPARdelta-LBD
# Method: The activity of PPARalpha agonists is determined in a 3-day assay which is described below:
# The PPARalpha reporter cell line is cultivated to 80% confluence in DMEM (#41965-039, Invitrogen) which is mixed with the following additions: 10% cs-FCS (fetal calf serum; #SH-30068.03, Hyclone), 0.5 mg/ml zeocin (#R250-01, Invitrogen), 0.5 mg/ml G418 (#10131-027, Invitrogen), 1% penicillin-streptomycin solution (#15140-122, Invitrogen) and 2 mM L-glutamine (#25030-024, Invitrogen). The cultivation takes place in standard cell culture bottles (#353112, Becton Dickinson) in a cell culture incubator at 37° C. in the presence of 5% CO2. The 80%-confluent cells are washed once with 15 ml of PBS (#14190-094, Invitrogen), treated with 3 ml of trypsin solution (#25300-054, Invitrogen) at 37° C. for 2 min, taken up in 5 ml of the DMEM described and counted in a cell counter. After dilution to 500.000 cells/ml, 35,000 cells are seeded in each well of a 96 well microtiter plate with a clear plastic base (#3610, Corning Costar). The plates are incubated in the cell culture incubator at 37° C. and 5% CO2 for 24 h.
# PPARalpha agonists to be tested are dissolved in DMSO in a concentration of 10 mM. This stock solution is diluted in DMEM (#41965-039, Invitrogen) which is mixed with 5% cs-FCS (#SH-30068.03, Hyclone), 2 mM L-glutamine (#25030-024, Invitrogen) and the previously described antibiotics (zeocin, G418, penicillin and streptomycin). Test substances are tested in 11 different concentrations in the range from 10 μM to 100 pM.
# The medium of the PPARalpha reporter cell line seeded on day 1 is completely removed by aspiration, and the test substances diluted in medium are immediately added to the cells. The dilution and addition of the substances is carried out by a robot (Beckman FX). The final volume of the test substances diluted in medium is 100 μl per well of a 96 well microtiter plate. The DMSO concentration in the assay is less than 0.1% v/v in order to avoid cytotoxic effects of the solvent.
# The assay plates are incubated in an incubator at 37° C. and 5% CO2 for 24 h.
# The PPARalpha reporter cells treated with the test substances are removed from the incubator, and the medium is aspirated off. The cells are lyzed by pipetting 50 μl of Bright Glo reagent (from Promega) into each well of a 96 well microtiter plate. After incubation at room temperature in the dark for 10 minutes, the microtiter plates are measured in the luminometer (Trilux from Wallac). The measuring time for each well of a microtiter plate is 1 sec.
# The raw data from the luminometer are transferred into a Microsoft Excel file. Dose-effect plots and EC50 values of PPAR agonists are calculated using the XL.Fit program as specified by the manufacturer (IDBS).
# The potency of substances which bind to human PPARdelta and activate it in an agonistic manner is analyzed using a stably transfected HEK cell line (HEK=human embryo kidney) which is referred to here as PPARdelta reporter cell line. In analogy to the assay described for PPARalpha, the PPARdelta reporter cell line also contains two genetic elements, a luciferase reporter element (pdeltaM-GAL4-Luc-Zeo) and a PPARdelta fusion protein (GR-GAL4-humanPPARdelta-LBD) which mediates expression of the luciferase reporter element depending on a PPARdelta ligand. The stably and constitutively expressed fusion protein GR-GAL4-humanPPARdelta-LBD binds in the cell nucleus of the PPARdelta reporter cell line via the GAL4 protein portion to the GAL4 DNA binding motifs 5′-upstream of the luciferase reporter element which is stably integrated in the genome of the cell line. There is only little expression of the luciferase reporter gene in the absence of a PPARdelta ligand if fatty acid-depleted fetal calf serum (cs-FCS) is used in the assay. PPARdelta ligands bind and activate the PPARdelta fusion protein and thereby stimulate expression of the luciferase reporter gene. […]
row,EC50 [µM],SMILES
1,0.001,"CCOc1cc(C(F)(F)F)ccc1C(=O)NC1Cc2ccc(S(=O)(=O)Nc3nnc(C(C)C)s3)cc2C1 (racemic) [Example 1, 2-Ethoxy-N-[5-(5-isopropyl-[1,3,4]thiadiazol-2-ylsulfamoyl)-indan-2-yl]-4-trifluoromethyl-benzamide]"
2,0.001,"CCOc1cc(C(F)(F)F)ccc1C(=O)NC1Cc2ccc(S(=O)(=O)Nc3nnc(C(C)C)s3)cc2C1 (single isomer, unassigned; enantiomer 1) [Example 1.1, 2-Ethoxy-N-[5-(5-isopropyl-[1,3,4]thiadiazol-2-ylsulfamoyl)-indan-2-yl]-4-trifluoromethyl-benzamide (Enantiomer 1)]"
3,0.05,"CCOc1cc(C(F)(F)F)ccc1C(=O)NC1Cc2ccc(S(=O)(=O)Nc3nnc(C(C)C)s3)cc2C1 (single isomer, unassigned; enantiomer 2) [Example 1.2, 2-Ethoxy-N-[5-(5-isopropyl-[1,3,4]thiadiazol-2-ylsulfamoyl)-indan-2-yl]-4-trifluoromethyl-benzamide (Enantiomer 2)]"
4,0.6,"CCOc1cc(C(F)(F)F)ccc1C(=O)N[C@H]1CCc2ccc(S(=O)(=O)Nc3nnc(C(C)C)s3)cc2C1 [Example 5, 2-Ethoxy-N-[(S)-7-(5-isopropyl-[1,3,4]thiadiazol-2-ylsulfamoyl)-1,2,3,4-tetrahydro-naphthalen-2-yl]-4-trifluoromethyl-benzamide]"
5,0.6,"CCOc1cc(C(F)(F)F)ccc1C(=O)N[C@@H]1CCc2ccc(S(=O)(=O)Nc3nnc(C(C)C)s3)cc2C1 [Example 6, 2-Ethoxi-N-[(R)-7-(5-isopropyl-[1,3,4]thiadiazol-2-ylsulfamoyl)-1,2,3,4-tetrahydro-naphthalene-2-yl]-4-trifluoromethyl-benzamide]"
6,0.001,"CCOc1cc(C(F)(F)F)sc1C(=O)NC1Cc2ccc(S(=O)(=O)Nc3nnc(C(C)C)s3)cc2C1 (stereo not drawn) [Example 11, 3-Ethoxy-5-trifluoromethyl-thiophene-2-carboxylic acid [5-(5-isopropyl-[1,3,4]thiadiazol-2-ylsulfamoyl)-indan-2-yl]-amide]"
